This is an account of results in PubChem BioAssay (NCI).

The structures appear in SMILES notation.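 A five-concentration, 48-hour dose response in 96-well plates underlies each endpoint, interpolated linearly between surrounding concentrations. Definition used: TGI = concentration required for complete inhibition of growth.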 Some results are limits rather than exact numbers.

Some test systems named below: SK-MEL-2 melanoma; KM20L2 colon; CAKI-1 renal; DMS 273 small cell lung; HOP-18 NSCLC; LXFL 529 NSCLC; SR leukemia; HCC-2998 colon.
Assay in all cases: NCI anticancer screen, dose series, 48 h

Turning to `CC(=O)OC1CCn2nnc(CO)c21` (configuration not stated), the TGI in the test with SK-MEL-2 melanoma, with KM20L2 colon, with CAKI-1 renal, in the test on DMS 273 small cell lung, in the test on HOP-18 NSCLC and in the test with LXFL 529 NSCLC was above 100 µM in each case. Besides, the TGI with SR leukemia and in the test with HCC-2998 colon was above 100 µM throughout.
For the compound `O=C1C=CC(=O)C12CCc1ccccc12`, the TGI is above 100 µM in the test with SK-MEL-2 melanoma; above 100 µM in the test with KM20L2 colon; above 31.6 µM in the test on CAKI-1 renal; above 100 µM with DMS 273 small cell lung; 97.4 µM with HOP-18 NSCLC; above 100 µM in the test with LXFL 529 NSCLC. The compound further showed a TGI in the test with HCC-2998 colon above 100 µM.
`COc1ccc(NC(=O)CC/C(CC(=O)C(C)(C)C)=N\NC(=O)C(=O)NN)cc1`: the TGI in the test on SK-MEL-2 melanoma, in the test on KM20L2 colon, in the test with CAKI-1 renal, with DMS 273 small cell lung, in the test with HOP-18 NSCLC and in the test on LXFL 529 NSCLC was above 100 µM each time. Moreover, the TGI in the test on SR leukemia and in the test with HCC-2998 colon was above 100 µM in each case.
Turning to `COc1cc(OC)c(SSCCCCS(=O)O)c(OC)c1`, the TGI in the test with SK-MEL-2 melanoma came out at 54.6 µM; in the test with KM20L2 colon it was 37.9 µM; in the test with DMS 273 small cell lung, 34.8 µM; in the test with HOP-18 NSCLC, 45.8 µM; in the test on LXFL 529 NSCLC, 25.2 µM; in the test on HCC-2998 colon, 42.4 µM.
Consider `CC1=C[C@]2(O)C(=O)[C@H](C)C[C@H]3[C@@H](CC[C@@](C)(O)/C=C\2C1=O)C3(C)C`, for which the TGI was 37.9 µM with SK-MEL-2 melanoma; 19.5 µM with KM20L2 colon; 55.4 µM in the test with CAKI-1 renal; 52.3 µM in the test with DMS 273 small cell lung; 98.9 µM with HOP-18 NSCLC; 37.9 µM in the test on LXFL 529 NSCLC. Further, the figures for the TGI in the test with SR leukemia and in the test with HCC-2998 colon were 45.2 µM and above 69.5 µM, respectively.
`COc1ccccc1C(O)(c1ccccc1)C(O)(c1ccccc1)c1ccccc1OC` (configuration not stated): the TGI in the test on SK-MEL-2 melanoma, with KM20L2 colon, in the test with DMS 273 small cell lung, in the test on HOP-18 NSCLC, with LXFL 529 NSCLC and in the test with SR leukemia was above 100 µM each time. The TGI in the test with HCC-2998 colon was above 100 µM.
On to `COc1ccc(-c2cc(=O)c3ccccc3o2)cc1N`, for which the TGI in the test with SK-MEL-2 melanoma, in the test on KM20L2 colon, in the test on CAKI-1 renal, in the test on DMS 273 small cell lung, in the test on HOP-18 NSCLC and with LXFL 529 NSCLC was above 100 µM each time. The same compound displayed a TGI with HCC-2998 colon above 100 µM.
For the compound `CCN(CC)CCCNC(=O)C1COc2cc(-c3cc(=O)c4ccccc4o3)ccc2O1` (configuration not stated), the TGI with KM20L2 colon is above 100 µM; in the test on CAKI-1 renal, above 100 µM; in the test on DMS 273 small cell lung, above 100 µM; in the test on HOP-18 NSCLC, above 100 µM; with LXFL 529 NSCLC it was above 100 µM; with SR leukemia, 47.9 µM. This compound also gave a TGI in the test with HCC-2998 colon above 100 µM.
For `CC(=O)c1cccc(C)c1C(=O)O`, the TGI with SK-MEL-2 melanoma, in the test with KM20L2 colon, in the test with CAKI-1 renal, in the test with DMS 273 small cell lung, in the test with HOP-18 NSCLC and with LXFL 529 NSCLC was above 100 µM each time. Further, the TGI with SR leukemia and with HCC-2998 colon was above 100 µM throughout.
As for `CCOC(=O)/C(=C\c1ccc(N(CCC#N)CCC#N)cc1)NC(=O)c1cc([N+](=O)[O-])ccc1Cl`, the TGI with SK-MEL-2 melanoma, in the test with KM20L2 colon, in the test with CAKI-1 renal, with DMS 273 small cell lung, in the test with HOP-18 NSCLC and in the test on LXFL 529 NSCLC was above 100 µM in each case. The compound also displayed a TGI with HCC-2998 colon above 100 µM.
Regarding `O=C1[C@H]2ON(c3ccccc3)C(c3ccccc3)[C@H]2C(=O)N1c1ccc(Cc2ccc(N3C(=O)[C@@H]4ON(c5ccccc5)C(c5ccccc5)[C@@H]4C3=O)cc2)cc1` (some centres not stated), the TGI in the test on SK-MEL-2 melanoma, in the test on KM20L2 colon, in the test on CAKI-1 renal, in the test with DMS 273 small cell lung, in the test on HOP-18 NSCLC and with LXFL 529 NSCLC was above 100 µM throughout. In the test on HCC-2998 colon, this compound showed a TGI above 100 µM.
Regarding `O=C1Cc2c([nH]c3ccccc23)-c2ccccc2N1`, the TGI is above 100 µM in the test with SK-MEL-2 melanoma; 50.7 µM with KM20L2 colon; above 100 µM in the test on CAKI-1 renal; above 100 µM with DMS 273 small cell lung; above 100 µM in the test with HOP-18 NSCLC; above 100 µM in the test on LXFL 529 NSCLC. In addition, in the test on HCC-2998 colon, the TGI came to 41.2 µM.
Turning to `CCOC(=O)Cc1ccc2c(c1O)C(=O)c1c(ccc(CC(=O)OCC)c1O)C2=O`, the TGI in the test with SK-MEL-2 melanoma, in the test on KM20L2 colon, with DMS 273 small cell lung, in the test on HOP-18 NSCLC, with LXFL 529 NSCLC and with SR leukemia was above 100 µM throughout. In addition, the TGI in the test with HCC-2998 colon is above 100 µM.
With `CN(C)CCNC(=O)c1cccc2nc3cc(Cl)ccc3nc12`, the TGI in the test with SK-MEL-2 melanoma was 7.57 µM; in the test with KM20L2 colon it was 9.08 µM; in the test with CAKI-1 renal it was above 23.5 µM; with DMS 273 small cell lung it was above 100 µM; in the test with HOP-18 NSCLC, above 63.2 µM; in the test with LXFL 529 NSCLC, above 22.3 µM. In addition, the TGI is above 100 µM with SR leukemia and 10.7 µM in the test with HCC-2998 colon.
